Data taken from patent publication US10421780B2, “Peptide for targeting autophagic cells and use thereof” (Kyungpook National University Industry-Academic Cooperation …, priority 2015, dated 2019).
Ends that are not written are not given here.

Legend:
[1] = test system: A549, HT1376, MDA-MB-231, HeLa and BEAS-2B cell lines; assay: Western blotting of LC3 I and LC3 II for autophagy level; assay type: cell-based; conditions: chloroquine treated together with rapamycin, 4 hours; all the cells (FIG. 1)
Experimental: After 4 hours, the cells were washed two times with 1×PBS, followed by a western blotting was carried out to investigate the protein levels of LC3 I and LC3 II (hereinafter referred to as, LC3 I/II). In order to perform the western blotting, the cells were first lysed with RIPA buffer with 1/ml protease inhibitor cocktail in the drug-treated cells. The whole cell extracts were fractionated by SDS-PAGE, and transferred to a nitrocellulose membrane using a dry blot (Bio-Rad). The membranes were incubated with TBST (10 mM Tris, pH 8.0, 150 mM NaCl, 0.5% Tween 20) containing 5% nonfat milk for 60 minutes, then washed once with TBST. The membrane was treated with rabbit antibody against human LC3 I/II (abcam) and stirred overnight at 4° C. The membrane was washed 3 times for 10 min with TBST, then was incubated for 1 hour with the HRP-labeled antibody (mouse anti-rabbit IgG-HRP, Santa Cruz, Inc.) against the rabbit antibody isolated from a mouse as a secondary antibody (1:3000 dilution). After washing three times with TBST and developing according to the protocol of the manufacturer of the ECL system (Amersham Biosciences), an image was detected with a luminescent image analyzer (LAS100 Plus, Fujifilm, Japan).

[2] = test system: MDA-MB-231 tumor tissue after rapamycin autophagy induction; assay: Microscopy of tumor frozen sections for peptide target signal; assay type: in vivo, nude mouse; conditions: flamma 675-labeled peptide; five hours after the peptide injection; frozen sections (FIG. 10)
Experimental: After five hours of the peptide injection, the image were acquired. Then the mice were sacrificed and the tumors were separated and frozen sections of tissues were prepared. Six μm-thickness tumor frozen sections were stained with DAPI for nuclear staining and immunostained with LC3 antibody for autophagy induction. The signal of flamma 675 (FPR675) dye, LC3 and DAPI were observed as red, green and blue under a microscope, respectively.

[3] = test system: pEGFP-LC3-transfected MDA-MB-231 cells treated with EBSS; assay: Detection of autophagy cells in the early stages of autophagy induction, fluorescence microscopy; assay type: cell-based; conditions: for fluorescence signal on early autophagy cells: Rhodamine B-labeled peptide 10 μmol/L, 4° C. 1 hour, EBSS 2 hours (FIG. 6); for site of binding on autophagy-induced cells: rhodamine-labeled peptide, single MDA-MB-231 cell (FIGS. 7A and 7B)
Experimental: (§1) pEGFP-LC3-transfected MDA-MB-231 cells were cultured on an eight-chamber slide and were treated with EBSS (Earl's balanced salt solution) for 2 hours to induce autophagy. Cells were then washed with PBS and treated with 10 μmol/L of each solution of Rhodamine B-labeled AtgPep-1 to AtgPep-4 (provided in PBS diluted) and incubated at 4° C. for 1 hour. Then 1% BSA was treated at 4° C. for 1 hour. The cells were fixed with 4% paraformaldehyde for 5 minutes. The cells were then stained with […] (DAPI) and mounted on a fluorescence microscope (Zeiss, Oberkochen, Germany).

[4] = test system: autophagy cells (rapamycin-treated HeLa or MDA-MB-231 cells); assay: Immunofluorescent staining of phage clones on rapamycin-treated cells; assay type: cell-based; conditions: phage clones displaying the peptide; rapamycin 4 hr; anti-M13 immunofluorescence (FIG. 4)
Experimental: A phage clone with high specificity for binding to autophagy cells was selected through phage binding ELISA for autophagy cells. More specifically, For binding of each phage clone in vitro, cells were seeded at 2×10^4 cells/well in a 96-well culture plate and cultured in 80˜90% confluence. And then cells were treated with rapamycin in serum-free medium for 4 hours, then washed with PBS and blocked with 1% BSA for 30 minutes at room temperature. The treated cells were then incubated with each phage clone (1×10^9 pfu/well). The pool of a phage library was used as a control. After 1 hour incubation at 4° C. with a phage clone, the cells were washed again with PBS and fixed with […] (in DMEM). Next, HRP-conjugated anti-M13 phage monoclonal antibody (1:3000 dilution, NEB) was added to M13 phage and incubated at room temperature for one hour. The cells were washed three times with PBS, and the TMB substrate (100/well) was treated for 2-10 min for color development and the reaction was terminated by treatment with 2M H2SO4. The final color product was measured at 450 nm wavelength in microtitration plate reader (Sunrise, Tecan Austria) using a windows based program XFluor4.
Further, after the phage clones selected for the rapamycin-treated cells were cultured as described above, immunofluorescent staining was performed using a mouse monoclonal antibody to M13 phage (mouse anti-M13 monoclonal antibody, diluted 1:3000) and Alexa 549-labeled antibody (Alexa 549-conjugated anti-mouse IgG antibody, abcam) against the mouse antibody as a secondary antibody in a conventional manner to confirm the attachment specificity and effect of the phage clones, and used for screening. […] The four peptide sequences of the clones is as follows; CKHHLGAIC (AtgPep-1, SEQ ID NO: 1), CQQTKNYYC (AtgPep-2, SEQ ID NO: 2), CNTGSPYEC: SEQ ID NO: 3 (AtgPep-3, SEQ ID NO: 3), CPPNTDRSC (AtgPep-4, SEQ ID NO: 4). […] It was confirmed that the phage clones displaying AtgPep-1 to AtgPep-4 specifically bind to autophagy cells respectively. In particular, it was confirmed that the phage clones specifically bind to the autophagy cells even in the initial (4 hr) autophagy state.

[5] = test system: HeLa cell, Chang cell and BEAS-2B cell; assay: Detection of autophagy cells in other cell types, fluorescence microscopy; assay type: cell-based; conditions: rhodamine B labeled, BEAS-2B cells (FIG. 8)
Experimental: as §1
In order to verify that the peptide of the present invention acts also on other tissues or cells other than the MDA-MB-231 cell line, autophagy was induced in several kinds of cells (derived from different tissues) and their detection ability was confirmed using AtgPep-1 (CKHHLGAIC; SEQ ID NO: 1) and AtgPep-2 (CQQTKNYYC: SEQ ID NO: 2) which represent particularly high signals among AtgPep-1 to AtgPep-4. The experimental method is the same as described above.

[6] = test system: MDA-MB-231 tumor after rapamycin autophagy induction; assay: In vivo NIRF imaging of autophagy in tumor animal model; design: species or system nude mouse; conditions: flamma 675-labeled peptide, tail vein, 50 μM; 4 to 5 hours after peptide injection; rapamycin 1.5 mg per kg i.p. (FIG. 9)
Experimental: As an experiment for monitoring and imaging autophagy using a peptide probe, tumor cells were transplanted into immunodeficient nude mice to grow tumors, and animal models for experiments were constructed. The MDA-MB-231 cell (10^6 cells), which was verified in the results of FIGS. 7A and 7B of the present invention, was injected into the femoral region of the nude mouse, and it was confirmed that the size of the tumor was 80 mm^3 after 10 days. In order to induce autophagy, rapamycin was injected intraperitoneally into each mouse in an amount of 1.5 mg per kg of the mouse. Two hours after the injection of rapamycin, AtgPep-2 (CQQTKNYYC: SEQ ID NO: 2) of the present invention, labeled with flamma 675 (=FPR675, Bioact Co., Korea), a near-infrared fluorescent (NIRF) was administered to each mouse (N=5 To 7) via tail vein at a final 50 μM concentration/mouse, while being allowed to circulate along the blood for 2 hours to obtain optical and fluorescence imaging at 2 hours, 4 hours, and 5 hours after the administration of the peptide. As a control, CNSSSVDKC peptide (Control, SEQ ID NO: 10) labeled with flamma 675 was injected at the same concentration and method. NIRF imaging signals were scanned and acquired using an IVIS imaging system (Caliper Life Sciences, Massachusetts, USA).

Molecule | target signal in the tumor tissue [2] | fluorescence signal on early autophagy cells [3] | site of binding on autophagy-induced cells [3] | binding specificity of phage clones to autophagy cells [4] | targeting to autophagy cells in other cell types [5] | other results
CCN(CC)CCCC(C)Nc1ccnc2cc(Cl)ccc12 (centres unmarked) [chloroquine] | – | – | – | – | – | production of LC3 II protein [1]: further increased
CNSSSVDKC (not fully specified; cysteine pairing not given here; also: flamma 675 label) [control peptide labeled with flamma 675, reference compound] | target signal was not present | – | – | – | – | –
CKHHLGAIC (Artificial Amino acid sequence of AtgPep-1) | – | strong fluorescence signals | bound to the cell membrane of the autophagy cell | high binding specificity to autophagy cells | specifically targeted to autophagy cells regardless of cell types | –
CQQTKNYYC (Artificial Amino acid sequence of AtgPep-2) | significantly higher | strong fluorescence signals | bound to the cell membrane of the autophagy cell | high binding specificity to autophagy cells | specifically targeted to autophagy cells regardless of cell types | tumor targeting in NIRF imaging versus control peptide [6]: significantly higher level
CPPNTDRSC (Artificial Amino acid sequence of AtgPep-4) | – | – | – | high binding specificity to autophagy cells | – | –
CNTGSPYEC (Artificial Amino acid sequence of AtgPep-3) | – | – | – | high binding specificity to autophagy cells | – | –
